From US5582832A, “Compositions for topical application to skin” (priority 1995, dated 1996)

Key:
keratinocytes [1] = conditions: exogenous or endogenous; cited from earlier work
[2] = tested on: 25D degradation (vitamin D metabolism in keratinocytes); test: Vitamin D metabolism in keratinocytes: 25D degradation; format: cell-based, human; conditions: for 25D (% degradation): Table 3, 10 uM
Description: (§1) 1. Normal human keratinocytes isolated from neonatal foreskins by trypsin treatment were grown in DME medium/10% fetal calf serum in the presence of irradiated 3T3 mouse fibroblasts for establishing dividing keratinocyte colonies. Keratinocytes were grown under the above condition until their third passage.
(§2) 80% confluent keratinocytes were incubated with 0.05 uCi of ^3 H-25D or ^3 H-1,25D for two hours or 20 hours in the presence of 1-100 uM of the different compounds. Reaction was stopped by addition of methanol and the cells and medium were extracted using chloroform:methanol. The chloroform layer was separated, dried and spotted on TLC plates. […] The amount of radioactivity in each lane was quantitated using the BioScan radioactive plate reader. The amount of radioactivity remaining in the peak area of 25D and 1,25D were calculated as % of control. The % remaining was subtracted from 100 to get the % degradation of the metabolites.
(§3) The data are expressed as mean of % degradation of 25D or 1,25D. The range is also given in parenthesis.

[3] = tested on: 1,25D degradation (vitamin D metabolism in keratinocytes); test: Vitamin D metabolism in keratinocytes: 1,25D degradation; format: cell-based, human; conditions: for 1,25D (% degradation): Table 3, 10 uM
Description: as §1, §2, §3

keratinocytes [4] = test: Rate of DNA synthesis (3H-thymidine incorporation) in keratinocytes; format: cell-based, human
Description: as §1
2. For the experiments, third passage keratinocytes were plated into a serum-free keratinocyte growth medium (KSFM; obtained from Life Technologies, Grand Island, N.Y.) containing 0.09 mM calcium. 20,000 to 30,000 cells were plated into each well of 24 well cell culture plates and grown for 5 days, until the cells reach about 80% confluence.
3. Medium was changed to fresh medium and the various test materials were added to the medium from an ethanolic stock solution (10:00 AM). The final ethanol concentration in the cultures was kept below 0.2%. Control cultures received no tested material but were dosed with 0.2% ethanol. Each compound or combination was tested in three separate wells. By 4:00 PM, 1 uCi of ^3 H-thymidine (Amersham Corp., Sp activity 40 Ci/mmol) was added to the 1 ml medium in each well. The cells were incubated overnight and […] (10:00 AM next day) the amount of ^3 -thymidine associated with the cellular DNA of keratinocytes was assessed as described below.
4. The medium was aspirated, and the wells washed with 1 ml phosphate-buffered saline. The DNA and proteins of the cells in the plate were then precipitated by adding 1 ml of ice-cold 10% trichloroacetic acid (TCA). The plates were left on ice for 30 minutes to complete the precipitation process. TCA was then aspirated and each well was then washed four times with 5% TCA. The plates were then dried on a filter pad and the cells in the wells were dissolved in 0.5 ml of 0.1N sodium hydroxide. The sodium hydroxide was then neutralized using 0.1N hydrochloric acid and the solution (1 ml total volume) was then transferred to a scintillation vial. 50 μl samples from each vial were used for protein assay using BCA protein assay reagent obtained from Pierce Chemical Company. 8 ml of a scintillation fluid (Ecolume) was added to the rest of the solution in the vial, and the vials were counted in a scintillation counter to determine the amount of radioactivity in each vial. The DNA synthesis rate was then calculated as cpm ^3 H thymidine incorporated into total cellular DNA/microgram of cell protein for each individual well. Mean and standard deviation for each group was also calculated.
Rationale for using 1,25D is that in in vivo situation, these azoles will inhibit the endogenous degradation of the 1,25D which is obtained from the circulation. Azoles will act in keratinocytes to increase the endogenous levels of 1,25D within cells. Keratinocytes (70% confluent) were incubated with 10 uM of the different azoles in the presence of 100 nM 1,25D. One of the groups was treated with 5 uM of ceramide of Formula A in the medium. After four hours, all the wells were treated with 1 uCi ^3 H-thymidine and the rate of DNA synthesis was estimated as described in the methods.
Keratinocytes were incubated with 1 or 10 uM of Econazole in the presence of 1 uM of the different ceramide analogues and 100 nM 1,25D in the medium. Thymidine incorporation was measured with an overnight incubation as described in Example 2.

[5] = tested on: histamine induced erythema; conditions: cited from earlier work
vitamin D metabolism = conditions: cited from earlier work
[6] = Table 2, 1 uM, 20 hour incubation, mean of duplicate (range)

For `C=C1/C(=C\C=C2/CCC[C@]3(C)[C@@H]([C@H](C)CCCC(C)(C)O)CC[C@@H]23)C[C@@H](O)C[C@@H]1O` [1,25-(OH)2 D3], the “inhibition of DNA synthesis and induction of differentiation (in words)” value (keratinocytes [1]) is listed as “inhibit DNA synthesis (i.e., inhibit growth) and induce differentiation of keratinocytes”.
In the case of `C=C1CC[C@H](O)C/C1=C/C=C1\CCC[C@]2(C)[C@@H]([C@H](C)CCCC(C)(C)O)CC[C@@H]12` [25-hydroxyvitamin D (25D), 25-hydroxyvitamin D], the “inhibition of DNA synthesis and induction of differentiation (in words)” value (keratinocytes [1]) is listed as “inhibit DNA synthesis (i.e., inhibit growth) and induce differentiation of keratinocytes”.
For `c1ccc(-c2ccc(C(c3ccccc3)n3ccnc3)cc2)cc1` (stereo not shown) [Bifonazole], the “blocking of 25D degradation (in words)” value ([2]; 1 uM, 20 hours (Table 2)) was “very effective”, the “blocking of 25D metabolism (in words)” value ([2]; 2 hours) was “ineffective” and the “blocking of 25D metabolism (in words)” value ([2]; 20 hours) was “very effective”. For the same compound, the “% degradation (25D)” value ([2]; Table 1, 10 uM compound) was 15%, the “25D degradation (%)” value [2, 6] was 41.2 (35.4-47.1) % and the “25D (% degradation)” value ([2]; 2 hours) was 89%. The “25D (% degradation)” value ([2]; 20 hours) was 15%, the “blocking of 1,25D degradation (in words)” value ([3]; 1 uM, 20 hours (Table 2)) was “very effective” and the “blocking of 1,25D metabolism (in words)” value ([3]; 2 hours) was “ineffective”. For the same compound, the “blocking of 1,25D metabolism (in words)” value ([3]; 20 hours) was “very effective”, the “% degradation (1,25D)” value ([3]; Table 1, 10 uM compound) was 56% and the “1,25D degradation (%)” value [3, 6] was 37.0 (25.4-48.6) %. For the same compound, the “1,25D (% degradation)” value ([3]; 2 hours) was 83%, the “1,25D (% degradation)” value ([3]; 20 hours) was 56% and the “DNA synthesis, % of control (100 nM 1,25D + 5 uM ceramide Formula A)” value (keratinocytes [4]; Table 4, 10 uM azole (or no azole) + 100 nM 1,25D + 5 uM ceramide Formula A, mean + SD, * = synergistic effect, 1440 min) was 44.4 + 7.3 % of control. For the same compound, the “DNA synthesis, % of control (azole, only 100 nM 1,25D)” value (keratinocytes [4]; Table 4, 10 uM azole, 100 nM 1,25D, no ceramide, mean + SD, 1440 min) was 75.8 + 4.3 % of control, the “DNA synthesis (% control)” value (keratinocytes [4]; Tables 4A-4F, 100 nM 1,25D, azole 10 uM, ceramide Formula A 5 uM, 1440 min) was 75.8 % control and the DNA synthesis (keratinocytes [4]; Tables 4A-4F, 100 nM 1,25D, azole 10 uM, ceramide Formula A 5 uM, mean + SD) was 111256 + 6355 cpm 3H thymidine incorporated. For the same compound, the “direct anti-inflammatory activity (in words)” value [5] was “direct anti-inflammatory activity”.
For `CC(=O)N1CCN(c2ccc(OCC3COC(Cn4ccnc4)(c4ccc(Cl)cc4Cl)O3)cc2)CC1` (stereo not shown) [Ketoconazole, ketoconazole], the “inhibition of vitamin D metabolism (in words)” value (vitamin D metabolism) is listed as “established inhibitor of vitamin D metabolism”.
